Experimental findings from patent US11998539B2, “Substituted aminoquinolones as DGKalpha inhibitors for immune activation” (Bayer Aktiengesellschaft, priority 2019, dated 2024) are described below.

DGKα, sequence (P23743 other isoform, or with tags, fused parts or gaps): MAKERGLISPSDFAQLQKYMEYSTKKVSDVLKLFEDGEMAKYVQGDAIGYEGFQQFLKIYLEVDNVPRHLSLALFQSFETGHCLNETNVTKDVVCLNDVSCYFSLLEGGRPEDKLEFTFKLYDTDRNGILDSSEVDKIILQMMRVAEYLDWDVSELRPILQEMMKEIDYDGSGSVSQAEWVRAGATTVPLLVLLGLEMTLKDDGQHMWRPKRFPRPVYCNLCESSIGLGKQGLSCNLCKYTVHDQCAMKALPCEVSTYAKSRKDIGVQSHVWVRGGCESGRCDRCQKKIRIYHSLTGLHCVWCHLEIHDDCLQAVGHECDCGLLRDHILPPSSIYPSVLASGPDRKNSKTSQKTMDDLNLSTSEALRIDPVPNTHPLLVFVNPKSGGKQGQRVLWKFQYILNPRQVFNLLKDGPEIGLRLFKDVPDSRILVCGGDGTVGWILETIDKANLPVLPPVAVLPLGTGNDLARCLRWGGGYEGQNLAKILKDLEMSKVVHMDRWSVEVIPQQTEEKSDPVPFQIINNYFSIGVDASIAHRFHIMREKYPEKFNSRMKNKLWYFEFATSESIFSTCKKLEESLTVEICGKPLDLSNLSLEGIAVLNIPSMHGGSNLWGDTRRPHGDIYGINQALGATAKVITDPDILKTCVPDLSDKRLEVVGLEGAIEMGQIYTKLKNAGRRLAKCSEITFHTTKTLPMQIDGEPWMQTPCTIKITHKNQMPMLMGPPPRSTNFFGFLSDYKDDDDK

This experiment concerns the target DGKα (Homo sapiens (Human), UniProt P23743). In words: Human DGKα kinase activity inhibition assay (ADP-Glo). Format: biochemical. The following applies: recombinant full-length human DGKα, 55 μM ATP, 7 μM 1,2-dioleoyl-sn-glycerol, read-out: IC50 values of examples in in vitro human DGKa kinase activity inhibition assays. The method, boiled down: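 Activity was measured as ADP production, detected by luciferase luminescence after removal of unused ATP. The enzyme was baculovirus-expressed full-length human DGKα with a C-terminal FLAG tag. The substrate was 1,2-dioleoyl-sn-glycerol in detergent micelles, and compounds came from 100× DMSO solutions.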
On the technique in general: ADP-Glo turns the ADP formed in a reaction into a luminescent signal.
With `Cn1c(=O)c(C#N)c(N2CCC(c3nc4ccc(Cl)nc4s3)CC2)c2ccccc21` [Example 19, 4-[4-(5-chloro[1,3]thiazolo[5,4-b]pyridin-2-yl)piperidin-1-yl]-1-methyl-2-oxo-1,2-dihydroquinoline-3-carbonitrile], the IC50 (in general, the concentration needed to halve the response being measured) was found to be 15 nM.
Then `Cc1ccc(-c2csc(C3CCN(c4c(C#N)c(=O)n(C)c5ccccc45)CC3)n2)cc1` [Example 374, 1-methyl-4-{4-[4-(4-methylphenyl)-1,3-thiazol-2-yl]piperidin-1-yl}-2-oxo-1,2-dihydroquinoline-3-carbonitrile], with 34 nM.
Then `Cn1c(=O)c(C(N)=O)c(N2CCC(c3nc4cc(N5CCCC5=O)ccc4o3)CC2)c2ccccc21` [Example 450, 1-methyl-2-oxo-4-{4-[5-(2-oxopyrrolidin-1-yl)-1,3-benzoxazol-2-yl]piperidin-1-yl}-1,2-dihydroquinoline-3-carboxamide], with 119 nM; and `COc1ccc2c(c1)c(N1CCC(C)(c3nc4ccc(C)cc4o3)CC1)c(C#N)c(=O)n2C` [Example 191, 6-methoxy-1-methyl-4-[4-methyl-4-(6-methyl-1,3-benzoxazol-2-yl)piperidin-1-yl]-2-oxo-1,2-dihydroquinoline-3-carbonitrile], with 7 nM.
For `Cc1ccc(-c2nnc(C3CCN(c4c(C(N)=O)c(=O)n(C)c5ccccc45)CC3)o2)cc1` [Example 462, 1-methyl-4-{4-[5-(4-methylphenyl)-1,3,4-oxadiazol-2-yl]piperidin-1-yl}-2-oxo-1,2-dihydroquinoline-3-carboxamide] the value was 121 nM; for `Cn1c(=O)c(C(N)=O)c(N2CCC(c3nc4ccccc4s3)CC2)c2ccccc21` [Example 113, 4-[4-(1,3-benzothiazol-2-yl)piperidin-1-yl]-1-methyl-2-oxo-1,2-dihydroquinoline-3-carboxamide], 3.5 nM.
`Cc1ccc2oc(C3(C)CCN(c4c(C#N)c(=O)n(C)c5c(S(C)(=O)=O)cccc45)CC3)nc2c1` [Example 164, 8-(methanesulfonyl)-1-methyl-4-[4-methyl-4-(5-methyl-1,3-benzoxazol-2-yl)piperidin-1-yl]-2-oxo-1,2-dihydroquinoline-3-carbonitrile]: the half-maximal inhibitory concentration (IC50) came out at 1.1 nM.
Consider `Cc1cc(C2(C)CCN(c3c(C(N)=O)c(=O)n(C)c4ccccc34)CC2)nc2ccccc12` [Example 470, 1-methyl-4-[4-methyl-4-(4-methylquinolin-2-yl)piperidin-1-yl]-2-oxo-1,2-dihydroquinoline-3-carboxamide], for which the half-maximal inhibitory concentration (IC50) worked out at 13 nM.
`Cn1c(=O)c(C#N)c(N2CCC(c3nc4ccccc4o3)CC2)c2ccc(F)cc21` [Example 236, 4-[4-(1,3-benzoxazol-2-yl)piperidin-1-yl]-7-fluoro-1-methyl-2-oxo-1,2-dihydroquinoline-3-carbonitrile]: the half-inhibitory concentration (IC50) amounted to 4.3 nM.
Consider `Cc1ccc2oc(C3CCN(c4c(C#N)c(=O)n(C)c5cc(O)ccc45)CC3)nc2c1` [Example 293, 7-hydroxy-1-methyl-4-[4-(5-methyl-1,3-benzoxazol-2-yl)piperidin-1-yl]-2-oxo-1,2-dihydroquinoline-3-carbonitrile], for which the IC50 worked out at 2.1 nM.
For `Cn1c(=O)c(C#N)c(N2CCC(C)(c3nc4ccccc4o3)CC2)c2ccc(F)cc21` [Example 235, 4-[4-(1,3-benzoxazol-2-yl)-4-methylpiperidin-1-yl]-7-fluoro-1-methyl-2-oxo-1,2-dihydroquinoline-3-carbonitrile] the value was 2.9 nM; for `COc1ccc(C2CCN(c3c(C#N)c(=O)n(C)c4cc(C)ccc34)CC2)cc1` [Example 91, 4-[4-(4-methoxyphenyl)piperidin-1-yl]-1,7-dimethyl-2-oxo-1,2-dihydroquinoline-3-carbonitrile], 3.1 nM.
For `COc1ccccc1-c1csc(C2CCN(c3c(C(N)=O)c(=O)n(C)c4ccccc34)CC2)n1` [Example 477, 4-{4-[4-(2-methoxyphenyl)-1,3-thiazol-2-yl]piperidin-1-yl}-1-methyl-2-oxo-1,2-dihydroquinoline-3-carboxamide] the value was 3.9 nM.
For the compound `Cn1c(=O)c(C#N)c(N2CCC(C)(c3nnc(-c4cccc(Cl)c4)o3)CC2)c2ccccc21` [Example 355, 4-{4-[5-(3-chlorophenyl)-1,3,4-oxadiazol-2-yl]-4-methylpiperidin-1-yl}-1-methyl-2-oxo-1,2-dihydroquinoline-3-carbonitrile], the half-inhibitory concentration (IC50) stood at 140 nM.
Then `Cc1ccccc1-n1ccc(C2CCN(c3c(C(N)=O)c(=O)n(C)c4ccccc34)CC2)n1` [Example 473, 1-methyl-4-{4-[1-(2-methylphenyl)-1H-pyrazol-3-yl]piperidin-1-yl}-2-oxo-1,2-dihydroquinoline-3-carboxamide], with 23 nM; and `Cc1ccc2oc(C3(C)CCN(c4c(C#N)c(=O)n(C)c5c(OC6CC6)cccc45)CC3)nc2c1` [Example 262, 8-(cyclopropyloxy)-1-methyl-4-[4-methyl-4-(5-methyl-1,3-benzoxazol-2-yl)piperidin-1-yl]-2-oxo-1,2-dihydroquinoline-3-carbonitrile], with 36 nM; and `Cn1c(=O)c(C#N)c(N2CCC(C)(c3nc4ccccc4o3)CC2)c2cccc(Cl)c21` [Example 230, 4-[4-(1,3-benzoxazol-2-yl)-4-methylpiperidin-1-yl]-8-chloro-1-methyl-2-oxo-1,2-dihydroquinoline-3-carbonitrile], with 83 nM.
On to `Cc1ccccc1-c1nnc(C2CCN(c3c(C#N)c(=O)n(C)c4cc(O)ccc34)CC2)o1` [Example 444, 7-hydroxy-1-methyl-4-{4-[5-(2-methylphenyl)-1,3,4-oxadiazol-2-yl]piperidin-1-yl}-2-oxo-1,2-dihydroquinoline-3-carbonitrile], for which the IC50 came to 82 nM.
Take `Cn1c(=O)c(C#N)c(N2CCC(c3nc4ccc(Br)cc4o3)CC2)c2ccccc21` [Example 294, 4-[4-(6-bromo-1,3-benzoxazol-2-yl)piperidin-1-yl]-1-methyl-2-oxo-1,2-dihydroquinoline-3-carbonitrile]: the 50% inhibitory concentration (IC50) amounted to 12 nM.
Then `Cc1ccc2nc(C3(C)CCN(c4c(C#N)c(=O)n(C)c5ccc(C)cc45)CC3)oc2c1` [Example 188, 1,6-dimethyl-4-[4-methyl-4-(6-methyl-1,3-benzoxazol-2-yl)piperidin-1-yl]-2-oxo-1,2-dihydroquinoline-3-carbonitrile], with 2.6 nM; and `Cn1c(=O)c(C(N)=O)c(N2CCC(c3ccccc3)CC2)c2ccccc21` [Example 114, 1-methyl-2-oxo-4-(4-phenylpiperidin-1-yl)-1,2-dihydroquinoline-3-carboxamide], with 15 nM.
For `CN(C)c1ccc(C2CCN(c3c(C#N)c(=O)n(C)c4ccccc34)CC2)cc1` [Example 46, 4-{4-[4-(dimethylamino)phenyl]piperidin-1-yl}-1-methyl-2-oxo-1,2-dihydroquinoline-3-carbonitrile] the value was 2.5 nM.
Then `Cn1c(=O)c(C#N)c(N2CCC(O)(c3cc4ccccc4s3)CC2)c2ccccc21` [Example 340, 4-[4-(1-benzothiophen-2-yl)-4-hydroxypiperidin-1-yl]-1-methyl-2-oxo-1,2-dihydroquinoline-3-carbonitrile], with 72 nM.
Regarding `Cc1ccc2oc(C3(C)CCN(c4c(C#N)c(=O)n(C)c5c(C#N)cccc45)CC3)nc2c1` [Example 163, 1-methyl-4-[4-methyl-4-(5-methyl-1,3-benzoxazol-2-yl)piperidin-1-yl]-2-oxo-1,2-dihydroquinoline-3,8-dicarbonitrile], the IC50 came out at 146 nM.
For `Cc1ccc2oc(C3CCN(c4c(C#N)c(=O)n(C)c5ccc(Br)cc45)CC3)nc2c1` [Example 396, 6-bromo-1-methyl-4-[4-(5-methyl-1,3-benzoxazol-2-yl)piperidin-1-yl]-2-oxo-1,2-dihydroquinoline-3-carbonitrile] the value was 0.9 nM; for `Cn1c(=O)c(C#N)c(N2CCC(c3cc(Cl)cc(Cl)c3)CC2)c2ccccc21` [Example 84, 4-[4-(3,5-dichlorophenyl)piperidin-1-yl]-1-methyl-2-oxo-1,2-dihydroquinoline-3-carbonitrile], 52 nM; for `Cc1ccc2oc(C3(C)CCN(c4c(C(N)=O)c(=O)n(C)c5ccc(N6C[C@H](O)CC6=O)cc45)CC3)nc2c1` [Example 280, 6-[(4R)-4-hydroxy-2-oxopyrrolidin-1-yl]-1-methyl-4-[4-methyl-4-(5-methyl-1,3-benzoxazol-2-yl)piperidin-1-yl]-2-oxo-1,2-dihydroquinoline-3-carboxamide], 4740 nM.
Then `COc1ccc2c(N3CCC(c4nc5cc(F)c(F)cc5o4)CC3)c(C#N)c(=O)n(C)c2c1` [Example 254, 4-[4-(5,6-difluoro-1,3-benzoxazol-2-yl)piperidin-1-yl]-7-methoxy-1-methyl-2-oxo-1,2-dihydroquinoline-3-carbonitrile], with 15 nM; and `Cc1ccc2oc(C3CCN(c4c(C(N)=O)c(=O)n(C)c5cc(OCC6CO6)ccc45)CC3)nc2c1` (stereo not shown) [Example 481, 1-methyl-4-[4-(5-methyl-1,3-benzoxazol-2-yl)piperidin-1-yl]-7-{[oxiran-2-yl]methoxy}-2-oxo-1,2-dihydroquinoline-3-carboxamide], with 2 nM.
Then `Cc1ccc2c(c1)c(N1CCC(C)(c3nc4cc(C(C)C)ccc4o3)CC1)c(C#N)c(=O)n2C` [Example 189, 1,6-dimethyl-4-{4-methyl-4-[5-(propan-2-yl)-1,3-benzoxazol-2-yl]piperidin-1-yl}-2-oxo-1,2-dihydroquinoline-3-carbonitrile], with 15 nM; and `Cc1ccc2c(c1)c(N1CCC(C)(c3nc4ccccc4o3)CC1)c(C(N)=O)c(=O)n2C` [Example 195, 4-[4-(1,3-benzoxazol-2-yl)-4-methylpiperidin-1-yl]-1,6-dimethyl-2-oxo-1,2-dihydroquinoline-3-carboxamide], with 1.5 nM.
